Like-named read-outs stand apart in the source and are kept apart here.

Assay [1] deals with Krümmungssyndrom an der Ratte. As to the kind of experiment: Analgesic effect: acetic acid-induced writhing syndrome in the rat. The class given is in vivo. The following applies: peroral, 1 h before i.p. 3 % acetic acid, dose (by interpolation) reducing number of writhings by 50 %, counted for 20 min. The protocol: Diese Wirkung wird durch Auswertung des Krümmungssyndroms an der Ratte bestimmt. Das Krümmungssyndrom wird z.B..in weiblichen Ratten von 120-140 g (5 Tiere pro Gruppe) durch eine intraperitoneale Injektion von 0,2 ml einer 3 %igen Essigsäurelösung eine Stunde nach der oralen Verabreichung der geprüften Substanz, hervorgerufen. Die Krümmungs-Bewegungen der Versuchstiere werden während 20 Minuten gezählt.
Die analgetische (antinociceptive) Wirksamkeit einer Verbindung wird durch die Bestimmung der Dosis (durch Interpolieren), welche bei Kontrolltieren (die lediglich den Trägerstoff der Wirksubstanz erhalten haben) die Anzahl der Krümmungen um 50% vermindert, beurteilt. ( ED50).
Literatur: Ziel et al., Pain Res. and Therapy, Vol. 1, ed. Bonica and Albe, Raven Press N.Y., 1976, p. 517.

Assay [2] relates to LDL-Cholesterin. In words: Effect on serum lipids and lipoproteins (LDL cholesterol) in male rats after oral treatment. The class given is in vivo, Ratten. Conditions: 50 mg/kg peroral, once daily for 3 days, twice on day 4, serum 16 h after last dose. The source says: Die in den Präparaten der Erfindung verwendeten Verbindungen zeigen wertvolle pharmakologische Eigenschaften, z.B. hypolipidämische Wirkungen mit günstiger Beeinflussung des Lipoproteinspektrums, ferner, insbesondere Verbindungen der Formel I, worin R3 für einen heterocyelischen Rest aromatischen Charakters, in erster Linie Pyridyl steht, analgetische Effekte. Diese pharmakologischen Eigenschaften können in Tierversuchen, vorzugsweise an Säugetieren, z.B. Ratten nachgewiesen werden. Hierbei können die Verbindungen enteral oder parenteral, vorzugsweise oral, subkutan oder intraperitoneal in einem Dosisbereich von 1 bis 100 mg/kg/Tag verabreicht werden. Beispielsweise wird die Senkung von "low und very low-density"-Lipoproteinen (LDL und VLDL), sowie die Senkung von Cholesterin und Triglyceriden im Serum wie folgt bestimmt: Männlichen Ratten verabreicht man an 3 Tagen einmal täglich 50 mg Wirkstoff peroral. Am 4. Tag werden die Tiere 2-mal behandelt. Am 5. Tag wird Serum gewonnen und die Lipoproteine werden mit einer Ultrazentrifuge aufgetrennt. Im Serum und in den isolierten Lipoproteinfraktionen werden das Cholesterin und die Triglyceride bestimmt. [K.R. Müller und R.G. Cortesi, Artery 4 (6): 564-577 (1978)].
Männliche Ratten von 180-200 g Körpergewicht erhalten an 3 Tagen einmal täglich peroral die Prüfsubstanz gelöst in Polyäthylenglykol 400. Am 4. Tag werden die Tiere zweimal, morgens und abends, behandelt. Nach der letzten Behandlung wird den Tieren das Futter entzogen. Sechzehn Stunden später werden die Ratten getötet. Aus dem Blut wird Serum gewonnen.
Gleiche Mengen Serum von je 2 Ratten aus derselben Gruppe werden vereinigt, und 0.05 EDTA (Aethylendiamintetraessigsäure) und 0,01 % Thimerosal werden zugesetzt. Die Serumlipoproteine werden durch Ultrazentrifugieren in einem Beckman 40.3 Rotor isoliert. Die VLDL (very low density lipoproteins) werden durch 24-stündiges
Zentrifugieren bei 78 000 g und der Dichte 1.006 gewonnen, die LDL (low density lipoproteins) durch 24-stündiges Zentrifugieren bei 78 000 g und der Dichte 1,040, und die HDL (high density lipoproteins) durch 24-stündiges Zentrifugieren bei 109 000 g und der Dichte 1.21.
In jeder Serumprobe und in jeder Lipoproteinfraktion werden Cholesterin und Triglyceride mit enzymatischen Methoden bestimmt. LDL-Cholesterin wurde als wichtigster Parameter für die Beurteilung der Lipidsenkung betrachtet.
Literatur: K.R. Müller und R.G. Cortesi, Artery 4(6):564-577 (1978).
Die Zahlen der folgenden Resultate geben die Aenderungen vom LDL-Cholesterin in % der Kontrolle an. Dosierung: 50 mg/kg peroral.

Setting [3] is: Rattus norvegicus, po, read-out: ED50.

As to “6-Methyl-2-(3-pyridyl)-5-butyloxy-5H-[1]benzopyrano[4,3-d]pyrimidin”, in assay [1], the median effective dose (ED50) was determined as 60 mg/kg. `CCOC1Oc2ccccc2-c2nc(-c3ccccn3)ncc21` (stereo not shown) [1-(2-Pyridyl)-5-äthoxy-5H-[1]benzopyrano[4,3-d]pyrimidin]: in assay [1] (setting [3]), the median effective dose (ED50) stood at 15 mg/kg. For the compound `CCCOC1Oc2ccccc2-c2nc(-c3cccc(OC)c3)ncc21` (stereo not shown) [2-(3-Methoxy-phenyl)-5-propyloxy-5H-[1]benzopyrano[4,3-d]pyrimidin], in assay [2], the “Aenderungen vom LDL-Cholesterin in % der Kontrolle” value was -43%. Take `CCCCOC1Oc2ccccc2-c2nc(-c3cccnc3)ncc21` (stereo not shown) [2-(3-Pyridyl)-5-butyloxy-5H-[1]benzopyrano[4,3-d]pyrimidin]: in assay [1] (setting [3]), the median effective dose (ED50) is 5 mg/kg. Take `CCOC1Oc2ccccc2-c2nc(-c3cccnc3)ncc21` (stereo not shown) [2-(3-Pyridyl)-5-äthoxy-5H-[1]benzopyrano[4,3-d]pyrimidin]: in assay [1] (setting [3]), the ED50 came to 1.5 mg/kg. In the case of `CCOC1Oc2ccccc2-c2nc(-c3ccc(O)cc3)ncc21` (stereo not shown) [2-(4-Hydroxy-phenyl)-5-äthyloxy-5H-[1]benzopyrano[4,3-d]pyrimidin], the “Aenderungen vom LDL-Cholesterin in % der Kontrolle” value in assay [2] is -69%. On to `CCCOC1Oc2ccccc2-c2nc(-c3ccc(OC)cc3)ncc21` (stereo not shown) [2-(4-Methoxy-phenyl)-5-propyloxy-5H-[1]benzopyrano[4,3-d]pyrimidin], for which the “Aenderungen vom LDL-Cholesterin in % der Kontrolle” value in assay [2] is listed as -38%.

Take `CCCOC1Oc2ccccc2-c2nc(-c3ccncc3)ncc21` (stereo not shown) [2-(4-Pyridyl)-5-propyloxy-5H-[1]benzopyrano[4,3-d]pyrimidin]: the ED50 in assay [1] (setting [3]) stood at 15 mg/kg. As to `CCCCOC1Oc2ccccc2-c2nc(-c3cccc(C)c3)ncc21` (stereo not shown) [2-(5-Methyl-phenyl)-5-butyloxy-5H-[1]benzopyrano[4,3-d]pyrimidin], the “Aenderungen vom LDL-Cholesterin in % der Kontrolle” value in assay [2] was -29%.

On to `CCOC1Oc2ccccc2-c2nc(-c3ccccc3)ncc21` (stereo not shown) [2-Phenyl-5-äthoxy-5H-[1]benzopyrano[4,3-d]pyrimidin], for which the “Aenderungen vom LDL-Cholesterin in % der Kontrolle” value in assay [2] was -61%.

The values above are taken from patent publication EP0051177A2, “Pharmaceutical preparations containing substituted ether compounds, their use, substituted ether compounds and process for their preparation” (CIBA-GEIGY AG, priority 1980, dated 1982).
